“And” between values parts separate entries of the source, which are not always exact repeats. Equal entries are not always repeated. Structures can show the parent of a compound that is named as a salt.
How the values were obtained:
[1] = system: oxazolone-induced mouse ear swelling; test: Model for inhibition of topical inflammation (oxazolone-induced mouse ear swelling); type: in vivo; conditions: BALB/c mice, ear thickness 24 hours after oxazolone challenge
Experimental: Model for Inhibition of Topical Inflammation. […] Left ears were untreated. The thickness of both ears of each animal was measured with a Dyer model micrometer gauge 24 hours after oxazolone challenge, and the net increase in thickness of right ears versus left ears was calculated for each animal. Percent inhibition was calculated according to the formula: [(Iv−It)/Iv]×100, where Iv and It respectively refer to the average net increase in right ear thickness (mm) for vehicle and candidate compound treated mice.

[2] = target: T1, human recombinant p38α protein kinase (Homo sapiens, UniProt Q16539); test: Human p38α MAP kinase inhibition assay (cell-free); type: biochemical; conditions: inhibition of phosphorylation of myelin basic protein by recombinant human p38α MAP kinase by 50%; Table III; read-out: IC50 p38α MAPK
T1 construct: purchased UBI (Upstate Biotechnology) 14-251; host or cells: E. coli
T1 sequence (Q16539 whole entry): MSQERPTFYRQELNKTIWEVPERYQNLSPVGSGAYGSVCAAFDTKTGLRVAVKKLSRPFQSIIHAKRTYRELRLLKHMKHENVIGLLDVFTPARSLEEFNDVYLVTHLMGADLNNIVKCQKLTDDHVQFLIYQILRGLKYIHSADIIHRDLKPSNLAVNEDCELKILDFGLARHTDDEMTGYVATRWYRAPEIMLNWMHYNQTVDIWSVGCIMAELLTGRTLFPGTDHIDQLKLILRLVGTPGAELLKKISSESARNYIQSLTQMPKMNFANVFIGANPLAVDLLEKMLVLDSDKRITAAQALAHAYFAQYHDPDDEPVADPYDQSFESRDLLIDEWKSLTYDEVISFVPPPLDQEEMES
Experimental: In vitro cell-free p38α MAP kinase inhibition assays were conducted by the method as described in Clerk et al., FEBS Lett., 426:93-96 (1998) for a number of lactones in formulas I/IIa/IIb. Briefly, human recombinant p38α protein kinase expressed in E. coli (UBI #14-251) was used. Myelin basic protein (MBP, UBI #13-110) was employed as substrate, and microtiter plate wells were coated with MBP (0.01 mg/ml) overnight at 4° C. Candidate compound and/or vehicle was preincubated with 0.075 μg/mL enzyme in modified HEPES buffer pH 7.4 at 25° C. for 15 minutes. The reaction was initiated by addition of 100 μM ATP and allowed to proceed for another 60 minutes. The reaction was terminated by aspirating the solution. Phosphorylated MBP was detected by incubation with a mouse monoclonal IgG2a anti-phosphoMBP antibody. Bound anti-phosphoMBP antibody was quantitated by incubation with a HRP conjugated goat anti-mouse IgG.

[3] = target: T2, rat liver HMG-CoA reductase (Rattus norvegicus, UniProt P51639); test: Cell-free HMG-CoA reductase inhibition assay; type: biochemical; conditions: concentration required to inhibit rat liver HMG-CoA reductase by 50%; read-out: IC50 HMG-CoA R
T2 sequence (P51639 1-887): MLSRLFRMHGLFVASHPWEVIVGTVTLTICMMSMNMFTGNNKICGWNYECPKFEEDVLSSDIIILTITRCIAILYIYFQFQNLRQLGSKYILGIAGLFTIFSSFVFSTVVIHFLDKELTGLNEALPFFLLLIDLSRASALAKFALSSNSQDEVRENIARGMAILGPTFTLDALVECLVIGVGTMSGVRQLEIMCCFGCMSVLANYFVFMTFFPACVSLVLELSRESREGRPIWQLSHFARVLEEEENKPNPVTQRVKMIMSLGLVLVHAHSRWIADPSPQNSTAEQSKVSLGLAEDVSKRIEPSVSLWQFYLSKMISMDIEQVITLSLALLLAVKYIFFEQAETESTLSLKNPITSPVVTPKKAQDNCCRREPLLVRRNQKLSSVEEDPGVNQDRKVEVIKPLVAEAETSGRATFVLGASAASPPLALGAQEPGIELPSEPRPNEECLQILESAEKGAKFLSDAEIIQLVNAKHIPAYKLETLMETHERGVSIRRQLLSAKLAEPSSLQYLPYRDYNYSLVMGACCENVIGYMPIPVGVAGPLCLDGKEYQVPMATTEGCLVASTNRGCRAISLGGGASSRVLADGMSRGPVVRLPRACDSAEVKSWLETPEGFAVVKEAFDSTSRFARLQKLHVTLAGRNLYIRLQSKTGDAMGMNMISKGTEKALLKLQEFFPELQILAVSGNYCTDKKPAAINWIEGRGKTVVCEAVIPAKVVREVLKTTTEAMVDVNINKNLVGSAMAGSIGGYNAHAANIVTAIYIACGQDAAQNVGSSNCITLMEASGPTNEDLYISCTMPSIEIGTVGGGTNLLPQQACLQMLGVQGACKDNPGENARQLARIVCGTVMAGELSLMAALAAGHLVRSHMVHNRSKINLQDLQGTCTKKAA
Experimental: An example of a cell-free HMG-CoA reductase assay involves radiometric procedures described in Shum et al., Ther. Drug Monit. 20:41-49 (1998), incorporated herein by reference. Briefly, about 150 μg/mL of HMG-CoA reductase can be incubated with a candidate compound, together with about 12 μM [^14C]HMG-CoA and about 200 μM NADPH in about 200 μL 0.2M phosphate buffer (pH about 7.2) for about 0.5 h at about 37° C. The [^14C]mevalonate that forms can be converted under acidic conditions to [^14C]mevalonolactone and separated from un-reacted substrate, for example, by ion-exchange chromatography, and then quantified, for example, by liquid scintillation counting.

[4] = system: LPS-induced TNF-α release from human peripheral blood mononuclear cells; test: Whole cell LPS-stimulated TNF-α release assay; type: cell-based; conditions: inhibition of LPS-induced TNF-α release from human peripheral blood mononuclear cells by 50%
Experimental: The procedure as described in Welker et al., Int. Arch. Allergy and Immunol. 109:110-115 (1996) can be followed. Briefly, a candidate compound and/or vehicle can be preincubated with human peripheral blood mononuclear leukocytes (PBML, 5×10^5/ml) cells in AIM-V medium pH 7.4 for 2 hours. Lipopolysaccharide (LPS, 25 ng/ml) can be added to stimulate the cells, which can be incubated overnight at 37° C. TNF-α cytokine levels in the conditioned medium can then be quantitated using a sandwich ELISA kit.

[5] = dose 2 × 0.3 mg topical to right ear
[6] = dose 2 × 1 mg topical to right ear
[7] = dose 2 × 2 mg topical to right ear

Row | SMILES | % Inh. [1, 5] | % Inh. [1, 7] | other results
1 | CC(C)c1c(C(=O)Nc2ccccc2)c(-c2ccccc2)c(-c2ccc(F)cc2)n1CC[C@@H]1C[C@@H](O)CC(=O)O1 [Atorvastatin lactone] | 40% | 50% | % Inh. ([1]; dose 2 × 0.3 mg topical to right ear, listed as atorvastatin lactone): 50% and 58% and 40%; % Inh. [1, 6]: 58%
2 | CC(C)c1c(C(=O)Nc2ccccc2)c(-c2ccccc2)c(-c2ccc(F)cc2)n1CC[C@@H](O)C[C@@H](O)CC(=O)O [Atorvastatin sodium] | 9% | 63% | % Inh. [1, 6]: 31%
3 | CCC(C)c1nn(-c2ccnc(Nc3ccccc3)c2)c(-c2ccc(F)cc2)c1/C=C/[C@@H](O)C[C@@H](O)CC(=O)O (stereo partly drawn) [Example 10a, (3R,5S,E)-7-(3-sec-butyl-5-(4-fluorophenyl)-1-(2-(phenylamino)pyridin-4-yl)-1H-pyrazol-4-yl)-3,5-dihydroxyhept-6-enoic acid calcium salt] | – | – | IC50 [2]: 11 µM; IC50 [3]: 0.003 µM; IC50 [4]: 21 µM
4 | O=C(O)C[C@H](O)C[C@H](O)CCc1c(-c2ccccc2)nn(-c2ccnc(Nc3ccccc3)n2)c1-c1ccccc1 [Example 11c, (3R,5R)-7-(3,5-diphenyl-1-(2-(phenylamino)pyrimidin-4-yl)-1H-pyrazol-4-yl)-3,5-dihydroxyheptanoic acid] | – | – | IC50 [4]: 18 µM
5 | CC(C)n1c(/C=C/C(O)CC(O)CC(=O)O)c(-c2ccc(F)cc2)c2ccccc21 (centres unmarked) [Fluvastatin sodium] | 28% | – | –
6 | COc1ccc2c(c1)c(CC(=O)O)c(C)n2C(=O)c1ccc(Cl)cc1 [Indomethacin] | 44% | – | –
7 | O=C([O-])C[C@H](O)C[C@H](O)/C=C/c1c(C2CC2)nc2ccccc2c1-c1ccc(F)cc1.O=C([O-])C[C@H](O)C[C@H](O)/C=C/c1c(C2CC2)nc2ccccc2c1-c1ccc(F)cc1.[Ca+2] [Pitavastatin calcium] | 9% | 60% | –
8 | CC[C@H](C)C(=O)O[C@H]1C[C@H](O)C=C2C=C[C@H](C)[C@H](CC[C@@H](O)C[C@@H](O)CC(=O)O)[C@H]21 [Pravastatin sodium] | 24% | – | –
9 | CC(C)c1nc(N(C)S(C)(=O)=O)nc(-c2ccc(F)cc2)c1/C=C/[C@@H](O)C[C@@H](O)CC(=O)O [Rosuvastatin sodium] | 20% | – | –

— patent publication US20070015779A1, “COMPOSITIONS AND TREATMENTS FOR INHIBITING KINASE AND/OR HMG-COA REDUCTASE” (priority 2005, published 2007)
